Laboratory results from patent US10280166B2, “2-(1H-indazol-3-yl)-3H-imidazo[4,5-B]pyridine and therapeutic uses thereof” (Samumed, LLC, priority 2014, dated 2019).
pEC50, pIC50: −log10 of the molar value.

Columns and labels:
[1] = system: primary human fibroblasts derived from IPF patients (LL29 cells); test: Inhibition of fibrosis (αSMA) in TGF-β1 treated primary human fibroblasts from IPF patients; type: cell-based; conditions: Fibroblast, 96 h, TGF-β1 20 ng/mL, 4 days, % αSMA positive cells
Source text: The above synthesized compounds were screened using primary human fibroblasts (derived from IPF patients) treated with TGF-β1 to determine their ability to inhibit the fibrotic process.
Primary human fibroblasts derived from IPF patients (LL29 cells) [^1Xiaoqiu Liu, et.al., “Fibrotic Lung Fibroblasts Show Blunted Inhibition by cAMP Due to Deficient cAMP Response Element-Binding Protein Phosphorylation”, Journal of Pharmacology and Experimental Therapeutics (2005), 315(2), 678-687; ^2Watts, K. L., et.al., “RhoA signaling modulates cyclin D1 expression in human lung fibroblasts; implications for idiopathic pulmonary fibrosis”, Respiratory Research (2006), 7(1), 88] were obtained from American Type Culture Collection (ATCC) and expanded in F12 medium supplemented with 15% Fetal Bovine Serum and Penicillin/Streptomycin.
Each compound was dissolved in DMSO as a 10 mM stock and used to prepare compound source plates. Serial dilution (1:2, 11-point dose-response curves from 10 μM to 1.87 nM) and compound transfer was performed using the ECHO 550 (Labcyte, Sunnyvale, Calif.) into 384-well clear bottom assay plates (Greiner Bio-One) with appropriate DMSO backfill for a final DMSO concentration of 0.1%. LL29 cells were plated at 1,500 cells/well in 80 μl/well F12 medium supplemented with 1% Fetal Bovine Serum. One hour after addition of the cells, TGF-β1 (Peprotech; 20 ng/mL) was added to the plates to induce fibrosis (ref. 1 and 2 above). Wells treated with TGF-β1 and containing DMSO were used as controls. Cells were incubated at 37° C. and 5% CO2 for 4 days. Following incubation for 4 days, SYTOX green nucleic acid stain (Life Technologies [Thermo Fisher Scientific]) was added to the wells at a final concentration of 1 uM and incubated at room temperature for 30 min. Cells were then fixed using 4% formaldehyde (Electron Microscopy Sciences), washed 3 times with PBS followed by blocking and permeabilization using 3% Bovine Serum Albumin (BSA; Sigma) and 0.3% Triton X-100 (Sigma) in PBS. Cells were then stained with antibody specific to α-smooth muscle actin (αSMA; Abcam) (ref. 1 and 2 above) in 3% Bovine Serum Albumin (BSA; Sigma) and 0.3% Triton X-100 (Sigma) in PBS, and incubated overnight at 4° C. Cells were then washed 3 times with PBS, followed by incubation with Alexa Flor-647 conjugated secondary antibody (Life Technologies [Thermo Fisher Scientific]) and DAPI at room temperature for 1 hour. Cells were then washed 3 times with PBS and plates were sealed for imaging. αSMA staining was imaged by excitation at 630 nm and emission at 665 nm and quantified using the Compartmental Analysis program on the CellInsight CX5 (Thermo Scientific). Dead or apoptotic cells were excluded from analysis based on positive SYTOX green staining. % of total cells positive for αSMA were counted in each well and normalized to the average of 11 wells treated with TGF-β1 on the same plate using Dotmatics' Studies Software. The normalized averages (fold change over untreated) of 3 replicate wells for each compound concentration were used to create dose-responses curves and EC50 values were calculated using non-linear regression curve fit in the Dotmatics' Studies Software. The EC50 values are reported.

[2] = system: Wnt activity (SW480 colon carcinoma cells stably expressing the Sp5-Luc reporter gene); test: Sp5-Luc reporter gene screening assay for Wnt activity in SW480 cells; type: cell-based; conditions: Homo sapiens, 42 h incubation, luminescence
Source text: The screening assay for Wnt activity is described as follows. Reporter cell lines can be generated by stably transducing cancer cell lines (e.g., colon cancer) or primary cells (e.g., IEC-6 intestinal cells) with a lentiviral construct that includes a Wnt-responsive promoter driving expression of the firefly luciferase gene.
SW480 colon carcinoma cells were transduced with a lentiviral vector expressing luciferase with a human Sp5 promoter consisting of a sequence of eight TCF/LEF binding sites. SW480 cells stably expressing the Sp5-Luc reporter gene and a hygromycin resistance gene were selected by treatment with 150 μg/ml of hygromycin for 7 days. These stably transduced SW480 cells were expanded in cell culture and used for all further screening activities. For Sp5-Luc reporter gene assays, the cells were plated at 10,000 cells/well in 96-well plates with growth medium containing 10% fetal calf serum and incubated overnight at 37° C. and 5% CO2. Each compound was dissolved in DMSO as a 10 mM stock in standard j-vials and used to prepare compound source plates in dose-response format with 3-fold serial dilutions and a 10 mM top concentration. Compound transfer from serially diluted source plates to assay plates containing the cells was accomplished using a pintool (Multimek 96, Beckman equipped with V&P Scientific FP1S50H pins) based liquid handling protocol. This protocol used a slotted pin to transfer 50 nl of compound from a source plate well to an assay plate well containing 50 μl of cells in growth medium. […] Control wells received 50 nl of DMSO treatment for normalization and calculating IC50 values. The treated cells were incubated at 37° C. and 5% CO2 for an additional forty-two hours. Following incubation, the growth medium was removed and 50 μl of BrightGlo luminescence reagent (Promega) was added to each well of the 96-well assay plates. The plates were placed on an orbital shaker for 5 min and then luminescence was quantified on the Victor3 (Perkin Elmer) plate reader. Readings were normalized to DMSO only treated cells, and normalized activities were utilized for IC50 calculations using the dose-response log (inhibitor) vs. response—variable slope (four parameters) nonlinear regression feature available in GraphPad Prism 5.0 or 6.0.

Structure (SMILES)	pEC50 [1]	pIC50 [2]
CCC(=O)Nc1cncc(-c2ccc3[nH]nc(-c4nc5c(-c6cccc(F)c6)ccnc5[nH]4)c3c2)c1 [Compound 1, N-(5-(3-(7-(3-Fluorophenyl)-3H-imidazo[4,5-b]pyridin-2-yl)-1H-indazol-5-yl)pyridin-3-yl)propionamide]	10.82	> 9.00
CC(C)C(=O)Nc1cncc(-c2ccc3[nH]nc(-c4nc5c(-c6cccc(F)c6)ccnc5[nH]4)c3c2)c1 [Compound 9]	8.00	8.52
CN(C)Cc1cncc(-c2ccc3[nH]nc(-c4nc5c(-c6cccc(F)c6)ccnc5[nH]4)c3c2)c1 [Compound 13, 1-(5-(3-(7-(3 -Fluorophenyl)-3H-imidazo[4,5-b]pyridin-2-yl)-1H-indazol-5-yl)pyridin-3-yl)-N,N-dimethylmethanamine]	8.94	6.94
O=C(Nc1cncc(-c2ccc3[nH]nc(-c4nc5c(-c6cccc(F)c6)ccnc5[nH]4)c3c2)c1)C1CC1 [Compound 19, N-(5-(3-(7-(3-Fluorophenyl)-3H-imidazo[4,5-b]pyridin-2-yl)-1H-indazol-5-yl)pyridin-3-yl)cyclopropanecarboxamide]	10.37	9.00
O=C(Nc1cncc(-c2ccc3[nH]nc(-c4nc5c(-c6cccc(F)c6)ccnc5[nH]4)c3c2)c1)C1CCCC1 [Compound 21, N-(5-(3-(7-(3-Fluorophenyl)-3H-imidazo[4,5-b]pyridin-2-yl)-1H-indazol-5-yl)pyridin-3-yl)cyclopentanecarboxamide]	10.57	8.04
CC(C)(C)C(=O)Nc1cncc(-c2ccc3[nH]nc(-c4nc5c(-c6ccc(F)cc6)ccnc5[nH]4)c3c2)c1 [Compound 34, N-(5-(3-(7-(4-Fluorophenyl)-3H-imidazo[4,5-b]pyridin-2-yl)-1H-indazol-5-yl)pyridin-3-yl)pivalamide]	9.48	7.72
Fc1ccc(-c2ccnc3[nH]c(-c4n[nH]c5ccc(-c6cncc(CN7CCCC7)c6)cc45)nc23)cc1 [Compound 40, 7-(4-Fluorophenyl)-2-(5-(5-(pyrrolidin-1-ylmethyl)pyridin-3-yl)-1H-indazol-3-yl)-3H-imidazo[4,5-b]pyridine]	11.05	5.40
O=C(Nc1cncc(-c2ccc3[nH]nc(-c4nc5c(-c6ccc(F)cc6)ccnc5[nH]4)c3c2)c1)C1CCC1 [Compound 46, N-(5-(3-(7-(4-Fluorophenyl)-3H-imidazo[4,5-b]pyridin-2-yl)-1H-indazol-5-yl)pyridin-3-yl)cyclobutanecarboxamide]	10.10	8.70
Fc1ccc(-c2ccnc3[nH]c(-c4n[nH]c5ccc(-c6cncnc6)cc45)nc23)cc1 [Compound 52, 7-(4-Fluorophenyl)-2-(5-(pyrimidin-5-yl)-1H-indazol-3-yl)-3H-imidazo[4,5-b]pyridine]	8.90	7.59
CN(C)c1cncc(-c2ccc3[nH]nc(-c4nc5c(-c6ccccc6F)ccnc5[nH]4)c3c2)c1 [Compound 59, 5-(3-(7-(2-Fluorophenyl)-3H-imidazo[4,5-b]pyridin-2-yl)-1H-indazol-5-yl)-N,N-dimethylpyridin-3-amine]	11.05	7.50
CC(C)C(=O)Nc1cncc(-c2ccc3[nH]nc(-c4nc5c(-c6ccccc6F)ccnc5[nH]4)c3c2)c1 [Compound 61, N-(5-(3-(7-(2-Fluorophenyl)-3H-imidazo[4,5-b]pyridin-2-yl)-1H-indazol-5-yl)pyridin-3-yl)isobutyramide]	11.05	8.22
O=C(Nc1cncc(-c2ccc3[nH]nc(-c4nc5c(-c6ccccc6F)ccnc5[nH]4)c3c2)c1)C1CC1 [Compound 71, N-(5-(3-(7-(2-Fluorophenyl)-3H-imidazo[4,5-b]pyridin-2-yl)-1H-indazol-5-yl)pyridin-3-yl)cyclopropanecarboxamide]	8.00	7.95
CN(C)Cc1cncc(-c2ccc3[nH]nc(-c4nc5c(-c6cc(F)cc(CNS(C)(=O)=O)c6)ccnc5[nH]4)c3c2F)c1 [Compound 1833, N-(3-(2-(5-(5-((Dimethylamino)methyl)pyridin-3-yl)-4-fluoro-1H-indazol-3-yl)-3H-imidazo[4,5-b]pyridin-7-yl)-5-fluorobenzyl)methanesulfonamide]		6.11
Fc1cccc(-c2ccnc3[nH]c(-c4n[nH]c5ccc(-c6cncc(OCCN7CCCC7)c6)cc45)nc23)c1 [Compound 1882, 7-(3-Fluorophenyl)-2-(5-(5-(2-(pyrrolidin-1-yl)ethoxy)pyridin-3-yl)-1H-indazol-3-yl)-3H-imidazo[4,5-b]pyridine]		5.38
CN(C)CCOc1cncc(-c2ccc3[nH]nc(-c4nc5c(-c6cccc(F)c6)ccnc5[nH]4)c3c2)c1 [Compound 1883, 2-((5-(3-(7-(3-Fluorophenyl)-3H-imidazo[4,5-b]pyridin-2-yl)-1H-indazol-5-yl)pyridin-3-yl)oxy)-N,N-dimethylethanamine]	10.02	
Fc1cccc(-c2ccnc3[nH]c(-c4n[nH]c5ccc(-c6cncc(OCc7ccccc7)c6)cc45)nc23)c1 [Compound 1886, 2-(5-(5-(Benzyloxy)pyridin-3-yl)-1H-indazol-3-yl)-7-(3-fluorophenyl)-3H-imidazo[4,5-b]pyridine]		< 5.00
CC(C)CC(=O)Nc1cncc(-c2ccc3[nH]nc(-c4nc5c(-c6cc(F)cc(OCCN(C)C)c6)ccnc5[nH]4)c3c2)c1 [Compound 2198, N-(5-(3-(7-(3-(2-(Dimethylamino)ethoxy)-5-fluorophenyl)-3H-imidazo[4,5-b]pyridin-2-yl)-1H-indazol-5-yl)pyridin-3-yl)-3-methylbutanamide]		6.74
CC(C)CC(=O)Nc1cncc(-c2ccc3[nH]nc(-c4nc5c(-c6cc(F)cc(OCCN7CCCC7)c6)ccnc5[nH]4)c3c2)c1 [Compound 2242, N-(5-(3-(7-(3-Fluoro-5-(2-(pyrrolidin-1-yl)ethoxy)phenyl)-3H-imidazo[4,5-b]pyridin-2-yl)-1H-indazol-5-yl)pyridin-3-yl)-3-methylbutanamide]		6.36
CC(C)CC(=O)Nc1cncc(-c2ccc3[nH]nc(-c4nc5c(-c6cc(O)cc(F)c6)ccnc5[nH]4)c3c2)c1 [Compound 2286, N-(5-(3-(7-(3-Fluoro-5-hydroxyphenyl)-3H-imidazo[4,5-b]pyridin-2-yl)-1H-indazol-5-yl)pyridin-3-yl)-3-methylbutanamide]		7.26
COc1cc(F)cc(-c2ccnc3[nH]c(-c4n[nH]c5ccc(-c6cncc(NC(=O)CC(C)C)c6)cc45)nc23)c1 [Compound 2330, N-(5-(3-(7-(3-Fluoro-5-methoxyphenyl)-3H-imidazo[4,5-b]pyridin-2-yl)-1H-indazol-5-yl)pyridin-3-yl)-3-methylbutanamide]		7.70
